# Where a name gives a salt, the structure may show the parent alone.
# Key:
# [1] = system: differentiated SH-SY5Y cells; assay: Neutral red (NR) uptake cytotoxicity assay; assay type: cell-based, human
# Experimental: The cells were seeded at a density of 25,000 cells/cm^2. To achieve a more mature neuron-like phenotype, SH-SY5Y cells were initially cultured in a complete medium supplemented with RA (10 µM). Subsequently, 3 days post-seeding, TPA (80 nM) was added to each well, and the cells were maintained for another 3 days until use, thus achieving a dopaminergic phenotype. In all the experiments, the cells were used between passages 22 and 28.
# The differentiated SH-SY5Y cells (25,000 cells/cm^2) and primary rat cortical cultures (150,000 cells/cm^2) were seeded onto 96-well plates as previously described.
# Accordingly, 6 days after seeding (differentiated SH-SY5Y cells) or at 8 DIV (primary cultures), the cells were exposed, for 24 h (37 °C, 5% CO2), to different concentrations of the drugs (0–1000 µM). Thus, the tested concentrations ranged from 0 to 1000 µM for 2C-T-2 and 2C-T-4; 0 to 500 µM for 2C-T-7; 0 to 250 µM for 25T2-NBOMe, and 0 to 100 µM for 25T4-NBOMe and 25T7-NBOMe.
# The NR uptake assay is based on the detection of viable cells through the incorporation of the NR dye by the cell’s lysosomes. In brief, after 24 h of exposure to the tested drugs, the differentiated SH-SY5Y cells and primary rat cortical cultures were incubated with NR (50 µg/mL in complete medium) for 90 or 210 min, respectively, at 37 °C, in a 5% CO2-95% air atmosphere. To extract the absorbed dye, an acidified ethanol solution was used, and the absorbance was then measured at 540 nm in a multi-well plate reader (PowerWaveX, BioTek Instruments, Winooski, VT, USA). The cytotoxicity was estimated by the percentage of NR uptake relative to the control cells, and a minimum of 4 independent experiments were conducted in triplicate.
# [2] = system: differentiated SH-SY5Y cells; assay: Total glutathione (tGSH) levels, DTNB-GSH recycling assay; assay type: cell-based, human; conditions: 100 μM, 24 h; control 100.0%
# Excerpt: Glutathione has a critical role in cellular physiology, playing multiple essential roles in maintaining cellular health and function, including antioxidant defense, detoxification, and cellular signaling. The 5,5′-dithiobis(2-nitrobenzoic acid) (DTNB)-GSH recycling assay was used to measure total GSH (tGSH), which includes the reduced (GSH) and oxidized (GSSG) forms of glutathione. The assay relies on the reaction of GSH with DTNB, producing the yellow-colored 5-thio-2-nitrobenzoic acid (TNB). Thus, the TNB generated is directly proportional to the amount of GSH present in the sample [31].
# Thus, the SH-SY5Y cells were seeded onto 6-well plates (25,000 cells/cm^2) following the previously described seeding and differentiation protocol. On the day of the experiment, the cells were exposed to different concentrations of the tested drugs (EC20 and EC50) for 24 h (37 °C, 5% CO2). At the end of the incubation period, the cells were centrifuged (5 min, 250 g, 4 °C). For the analysis of extracellular GSH levels, the supernatants were collected, and proteins precipitated with 30% HClO4 for at least 30 min (4 °C). For the analysis of intracellular GSH levels, after collecting the supernatants, the cells were treated with 5% HClO4 for at least 30 min (4 °C). Subsequently, the acidic samples were collected from the plates and centrifuged (5 min, 16,000× g, 4 °C), and the supernatants were stored until further analysis (−80 °C). To assess protein content, the pellets were resuspended in 1M NaOH, maintained at 4 °C overnight, and stored until further analysis (−20 °C). A Bio-Rad DC™ protein assay kit (Bio-Rad Laboratories, Hercules, CA, USA) was used to analyze protein content, in accordance with the manufacturer’s guidelines.
# Before the tGSH quantification, the acidic samples were diluted (1:2) with 5% HClO4, and the diluted samples/standards were neutralized with an ice-cold KHCO3 solution (1:1) and centrifuged (5 min, 16,000× g, 4 °C).
# Then, 100 µL of supernatant from each sample/standard was transferred into a 96-well plate and 65 µL of an extemporaneous reagent solution (0.68 mM NADPH and 3.96 mM DTNB prepared in a 7.5 pH phosphate buffer) was added to each well, and the plates were incubated for 15 min at 30 °C. After 15 min, 40 μL of a 10 U/mL glutathione reductase solution was added to each well and the formation of 5-thio-2-nitrobenzoic acid (TNB) was monitored every 10 s for 3 min (kinetic mode) at 415 nm in a multi-well plate reader (PowerWaveX, BioTek Instruments, Winooski, VT, USA).
# The GSH levels were standardized to protein content. The results are presented as a percentage relative to the control cells (0 µM). A minimum of 6 independent experiments were conducted, in duplicate.
# Glutamate/cysteine ligase (GCL), also recognized as gamma-glutamylcysteine synthetase (γ-GCS), is a key enzyme in the first step of glutathione biosynthesis, as it catalyzes the reaction between glutamate and cysteine to produce γ-glutamylcysteine. […] The SH-SY5Y cells were seeded onto 6-well plates (25,000 cells/cm^2) following the previously described seeding and differentiation protocol. On the day of the experiment, the cells were incubated with BSO (100 µM) for 24 h (37 °C, 5% CO2) and the quantification of GSH intracellular levels was achieved according to the previously described method in Section 2.11.
# [3] = system: differentiated SH-SY5Y cells; parameters: method as in PMID 37631071, PMID 25900438; conditions: same in vitro model; cited from earlier work
# [4] = system: differentiated SH-SY5Y cells; parameters: method as in PMID 37631071, PMID 25900438; conditions: same in vitro model; cited from earlier work; remark: listed apart in the source
# [5] = parameters: method as in earlier work; conditions: reported CHI values of the calibration set; cited from earlier work
# [6] = system: differentiated SH-SY5Y cells; assay: Mitochondrial membrane potential, JC-1 dye; assay type: cell-based, human; conditions: positive control, 100 µM, 2 h
# Excerpt: Mitochondrial membrane potential (ΔΨm) is a valuable parameter that reflects the energy status and functional integrity of cells, and the JC-1 dye is widely used as an indicator of ΔΨm. In healthy cells with high ΔΨm, JC-1 forms J-aggregates that emit red fluorescence. In apoptotic or unhealthy cells with low ΔΨm, JC-1 remains in its monomeric form and emits green fluorescence. The ratio of red to green fluorescence intensity is proportional to the degree of polarization of the mitochondrial membrane (a higher ratio indicates a more polarized membrane).
# Thus, the SH-SY5Y cells were seeded onto 24-well plates (25,000 cells/cm^2) following the previously described seeding and differentiation protocol. On the day of the experiment, the cells were exposed to different concentrations of the tested drugs (EC20 and EC50) for 24 h (37 °C, 5% CO2). CCCP (100 µM, 2 h) was used as a positive control for mitochondrial membrane depolarization. At the end of the incubation period, the medium was removed, and the cells were incubated, for 30 min, with 10 µM JC-1 under light protection (37 °C, 5% CO2). Subsequently, the plates were centrifuged (5 min, 300× g, room temperature), the supernatants were rejected, and the cells were washed 2 times with warm HBSS with calcium and magnesium. Fluorescence was recorded at the wavelengths of 485 nm excitation and 535 nm emission for JC-1 monomers and 535 nm excitation and 595 nm emission wavelengths for J-aggregates in a multi-well plate reader (PowerWaveX, BioTek Instruments, Winooski, VT, USA). The results are presented as the percentage of JC-1 red/green fluorescence ratio relative to the control cells, and a minimum of 5 independent experiments were conducted in triplicate.
# [7] = system: differentiated SH-SY5Y cells; conditions: same experimental conditions; cited from earlier work
# [8] = system: MAO-A and MAO-B; conditions: rat model; cited from earlier work
# [9] = system: serotonergic B65 cells; parameters: method as in doi:10.1007/s11419-020-00527-w; conditions: cited from earlier work
# [10] = system: TK6 cells; parameters: method as in PMID 33348640; conditions: 35 µM, 1 h; cited from earlier work
# [11] = system: differentiated SH-SY5Y cells; assay: Intracellular calcium levels, Fluo-4 AM probe; assay type: cell-based, human; conditions: positive control, 25 mM
# Experimental: Calcium is a vital second messenger for almost every cellular process, including cellular signaling, muscle function, neurotransmitter release, membrane function, and apoptosis. Therefore, its levels inside cells are strictly controlled to maintain cellular homeostasis. The intracellular calcium levels were measured using the cell-permeable Fluo-4 AM probe. Inside the cells, Fluo-4 AM is cleaved to its active and fluorescent form—Fluo-4—which has a high affinity for calcium ions (Ca^2⁺). Thus, its fluorescence emission is directly proportional to the concentration of calcium ions in the intracellular environment.
# Therefore, the SH-SY5Y cells were seeded onto 96-well plates (25,000 cells/cm^2) following the previously described seeding and differentiation protocol. […] The average value for negative control (EGTA-treated cells) was subtracted from every other condition and then the minimum average value was subtracted from the maximum average value for every other condition. The results are presented as a percentage relative to the control cells (0 µM). A minimum of 5 independent experiments were conducted in triplicate.
structure (smiles),measurement,setting,value
"C#CCN(C)CCCOc1ccc(Cl)cc1Cl [clorgyline, reference compound]","cytotoxicity, NR uptake","[1]; 1 μM, 24 h of exposure",Neither clorgyline nor rasagiline (1 μM) showed significant cytotoxicity
"CCCCS(=N)(=O)CCC(N)C(=O)O [BSO, L-buthionine sulfoximine, reference compound]","cytotoxicity, NR uptake","[1]; 100 μM, 24 h (Figure S2: + 50 μM for an additional 24 h)",No significant cytotoxic effects
same,"GSH intracellular levels, % of control cells",[2],9.2%
c1ccc(CN2CCNCC2)cc1 [BZP],tGSH content,[3],significant decrease in the tGSH content
same,ROS production,[4],no ROS production
CCC(=O)c1ccccc1 [Propiophenone],CHI0 pH 2.3,[5],77.4
"N#CC(C#N)=NNc1cccc(Cl)c1 [CCCP, carbonyl cyanide 3-chlorophenylhydrazone, reference compound]","mitochondrial membrane polarization (JC-1 red/green ratio), % of the control cells",[6],56.3%
COc1cc([N+](=O)[O-])c(OC)cc1CCNCc1ccccc1OC [25N-NBOMe],drug-induced cytotoxicity upon MAO inhibition,[7],significant increase in the drug-induced cytotoxicity was observed upon MAO inhibition
"C#CCN[C@@H]1CCc2ccccc21 [rasagiline, rasagiline mesylate, reference compound]","cytotoxicity, NR uptake","[1]; 1 μM, 24 h of exposure",Neither clorgyline nor rasagiline (1 μM) showed significant cytotoxicity
c1ccc2[nH]ccc2c1 [Indole],CHI0 pH 2.3,[5],72.1
c1ccc2[nH]cnc2c1 [Benzimidazole],CHI0 pH 2.3,[5],6.3
COc1ccccc1CNCCc1cc(OC)c(OC)c(OC)c1 [mescaline-NBOMe],tGSH content,[3],significant decrease in the tGSH content
same,ROS production,[4],no ROS production
same,drug-induced cytotoxicity upon MAO inhibition,[7],significant increase in the drug-induced cytotoxicity was observed upon MAO inhibition
CCCC(=O)c1ccccc1 [Butyrophenone],CHI0 pH 2.3,[5],87.3
COc1cc(CCN)c(OC)cc1C [2C-D],deamination by MAO-A and MAO-B,[8],both isoenzymes can catalyze the deamination
FC(F)(F)c1cccc(N2CCNCC2)c1 [TFMPP],tGSH content,[3],significant decrease in the tGSH content
same,ROS production,[4],no ROS production
COc1cc2c(c(OC)c1OC)-c1ccc(OC)c(=O)cc1[C@@H](NC(C)=O)CC2 [Colchicine],CHI0 pH 2.3,[5],43.9
COc1cc([N+](=O)[O-])c(OC)cc1CCN [2C-N],tGSH content,[3],significant decrease in the tGSH content
same,ROS production,[4],no ROS production
same,drug-induced cytotoxicity upon MAO inhibition,[7],significant increase in the drug-induced cytotoxicity was observed upon MAO inhibition
COc1cc(CCN)cc(OC)c1OC [mescaline],tGSH content,[3],significant decrease in the tGSH content
same,ROS production,[4],no ROS production
same,drug-induced cytotoxicity upon MAO inhibition,[7],significant increase in the drug-induced cytotoxicity was observed upon MAO inhibition
"COc1cc(CCN)c(OC)cc1Cl [2C-C, reference compound]",mitochondrial production of ROS,[9],no significant alterations
"Cn1c(=O)c2[nH]cnc2n(C)c1=O [Theophyline, theophylline]",CHI0 pH 2.3,[5],17.9
CCc1cc(OC)c(CCN)cc1OC [2C-E],deamination by MAO-A and MAO-B,[8],both isoenzymes can catalyze the deamination
COc1cc(CCNCc2ccccc2OC)c(OC)cc1Cl [25C-NBOMe],tGSH content,[3],significant decrease in the tGSH content
same,ROS production,[4],no ROS production
"Cn1c(=O)c2c(ncn2C)n(C)c1=O [Caffeine, caffeine]",CHI0 pH 2.3,[5],23.41
COc1ccc(OC)c(CCN)c1 [2C-H],increase in ROS levels,[10],two-fold
NC(=O)N1c2ccccc2C=Cc2ccccc21 [Carbamazepine],CHI0 pH 2.3,[5],60.42
CC(=O)Nc1ccc(O)cc1 [Paracetamol],CHI0 pH 2.3,[5],18.77
c1cc2c(cc1CN1CCNCC1)OCO2 [MDBP],tGSH content,[3],significant decrease in the tGSH content
same,ROS production,[4],no ROS production
COc1ccc(N2CCNCC2)cc1 [MeOPP],tGSH content,[3],significant decrease in the tGSH content
same,ROS production,[4],no ROS production
"[Ca+2].[Cl-].[Cl-] [CaCl2, reference compound]","Ca2+ intracellular levels, % of control cells",[11],141.0%
